The record followed here is patent US11498928B2, “Macrocyclic spiroethers as Mcl-1 inhibitors” (ASCENTAGE PHARMA (SUZHOU) CO., LTD., priority 2019, dated 2022).

The structures appear in SMILES notation. pIC50: −log10 of the molar value.

The test system of one assay is NCI-H929 cells. Briefly: Cell viability assay (NCI-H929 cells), CCK-8. The format is cell-based. As to conditions: Homo sapiens, NCI-H929, 24 h, 5% FBS. Put shortly:
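Viability of NCI-H929 cells was measured using the Cell Counting Kit-8. After 24 hrs of compound exposure, 10 μL of CCK-8 solution per well was incubated for 1-4 hours, and absorbance was read at 450 nm on a BioTek Synergy 1MF. Readings were normalized to vehicle (DMSO) cells, and IC50 values were derived by nonlinear regression in GraphPad Prism 6.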

In the next assay the test system is OPM-2 cells. Briefly: Cell viability assay (OPM-2 cells), CCK-8. The format is cell-based. As to conditions: Homo sapiens, OPM-2, 24 h, 5% FBS. Put shortly:
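Viability read by CCK-8 absorbance (450 nm, 4 h reagent incubation) after 24 h compound exposure of 20000 OPM-2 cells per well at 37 °C. IC50 fitted by nonlinear regression on vehicle-normalized signal.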

Assay [1] deals with T1, Mcl-1 protein (residues 171-323) (Homo sapiens, UniProt Q07820).
T1 construct: Tag-free Mcl-1 protein (residues 171-323) was used in the FP assay
The experiment in a line: Inhibition of Mcl-1 by fluorescence polarization (FP) competitive binding assay with FAM-Bid tracer. To be noted: 2 nM FAM-Bid, 20 nM Mcl-1, 30 min. Put shortly:
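Ten-point compound titrations compete against 2 nM fluorescein-Bid for 20 nM Mcl-1 (171-323, untagged). Incubation 30 min RT in PBS buffer with BGG and Triton, 5% DMSO final. mP reduction fitted by sigmoidal nonlinear regression for IC50.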

T1 sequence (Q07820 171-323): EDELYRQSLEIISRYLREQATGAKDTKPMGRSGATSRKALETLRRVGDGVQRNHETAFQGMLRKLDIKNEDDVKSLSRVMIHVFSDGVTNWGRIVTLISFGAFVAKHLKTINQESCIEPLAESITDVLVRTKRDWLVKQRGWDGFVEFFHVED

On to `C[C@@H]1[C@@H](C)S(=O)(=O)NC(=O)c2ccc3c(c2)N(C[C@@H]2CC[C@H]2[C@](O)(CN2CCN4CCOC[C@H]4C2)C2=C[C@H]1C2)C[C@@]1(CCCc2c1ccc(Cl)c2F)CO3` [compound 48, (1S,11′R,12′S,13′R,16′R,16a′R,18a′R,E)-6-chloro-5-fluoro-16′-(((R)-hexahydropyrazino[2,1-c][1,4]oxazin-8(1H)-yl)methyl)-16′-hydroxy-11′,12′-dimethyl-3,4,12,′13′,16′,16a′,17′,18′,18a′,19′-decahydro-1′H,2H,3′H,11′H-spiro[naphthalene-1,2′-[5,7]etheno[13,15]methanocyclobuta[i][1,4]oxazepino[3,4-f][1]thia[2,7]diazacyclohexadecin]-8′(9′H)-one 10′,10′-dioxide], for which the pIC50 with NCI-H929 cells is 7.55; in the assay with OPM-2 cells, 7.16; in assay [1] it was 7.74.

`CO[C@@]1(CN2CCN(C(C)=O)CC2)C2=C[C@@H](C2)[C@H](C)[C@@H](C)S(=O)(=O)NC(=O)c2ccc3c(c2)N(C[C@@H]2CC[C@H]21)C[C@@]1(CCCc2c1ccc(Cl)c2F)CO3` [compound 49]: the pIC50 is 7.92 in the assay on NCI-H929 cells, 6.73 in the assay with OPM-2 cells and 7.96 in assay [1].

As for `CO[C@@]1(CN2CCN(C3COC3)CC2)C2=C[C@@H](C2)[C@H](C)[C@@H](C)S(=O)(=O)NC(=O)c2ccc3c(c2)N(C[C@@H]2CC[C@H]21)C[C@@]1(CCCc2c1ccc(Cl)c2F)CO3` [compound 50], the pIC50 in the assay with NCI-H929 cells was 7.96; with OPM-2 cells, 7.55; in assay [1] it was 7.96.

Regarding `CO[C@@]1(CN2CCN3CCOC[C@@H]3C2)C2=C[C@@H](C2)[C@H](C)[C@@H](C)S(=O)(=O)NC(=O)c2ccc3c(c2)N(C[C@@H]2CC[C@H]21)C[C@@]1(CCCc2c1ccc(Cl)c2F)CO3` [compound 51, (1S,11′R,12′S,13′R,16′R,16a′R,18a′R,E)-6-chloro-5-fluoro-16′-(((S)-hexahydropyrazino[2,1-c][1,4]oxazin-8(1H)-yl)methyl)-16′-methoxy-11′,12′-dimethyl-3,4,12′,13′,16′,16a′,17′,18′,18a′,19′-decahydro-1′H,2H,3′H,11′H-spiro[naphthalene-1,2′-[5,7]etheno[13,15]methanocyclobuta[i][1,4]oxazepino[3,4-f][1]thia[2,7]diazacyclohexadecin]-8′(9′H)-one 10′,10′-dioxide], the pIC50 was 8.22 in the assay on NCI-H929 cells, 7.85 in the assay with OPM-2 cells and 8.13 in assay [1].

Take `CNC[C@]1(OC)C2=C[C@@H](C2)[C@H](C)[C@@H](C)S(=O)(=O)NC(=O)c2ccc3c(c2)N(C[C@@H]2CC[C@H]21)C[C@@]1(CCCc2c1ccc(Cl)c2F)CO3` [compound 52, (1S,11′R,12′S,13′R,16′R,16a′R,18a′R,E)-6-chloro-5-fluoro-16′-methoxy-11′,12′-dimethyl-16′-((methylamino)methyl)-3,4,12′,13′,16′,16a′,17′,18′,18a′,19′-decahydro-1′H,2H,3′H,11′H-spiro[naphthalene-1,2′-[5,7]etheno[13,15]methanocyclobuta[i][1,4]oxazepino[3,4-f][1]thia[2,7]diazacyclohexadecin]-8′(9′H)-one 10′,10′-dioxide]: the figures for the pIC50 (in the assay with NCI-H929 cells; with OPM-2 cells; in assay [1]) were 7.72, 7.64 and 8.15, respectively.

Regarding `CO[C@@]1(CN(C)C(C)=O)C2=C[C@@H](C2)[C@H](C)[C@@H](C)S(=O)(=O)NC(=O)c2ccc3c(c2)N(C[C@@H]2CC[C@H]21)C[C@@]1(CCCc2c1ccc(Cl)c2F)CO3` [compound 53, N-(((1S,11′R,12′S,13′R,16′R,16a′R,18a′R,E)-6-chloro-5-fluoro-16′-methoxy-11′,12′-dimethyl-10′,10′-dioxido-8′-oxo-3,4,8′,9′,12′,13′,16′,16a′,17′,18′,18a′,19′-dodecahydro-1′H,2H,3′H,11′H-spiro[naphthalene-1,2′-[5,7]etheno[13,15]methanocyclobuta[i][1,4]oxazepino[3,4-f][1]thia[2,7]diazacyclohexadecin]-16′-yl)methyl)-N-methylacetamide], the pIC50 with NCI-H929 cells was 7.31; in the assay with OPM-2 cells it was 7.24; in assay [1], 8.24.

On to `CO[C@@]1(CN2CCN3CCOC[C@@H]3C2)C2=C[C@@H](C2)[C@H](C)[C@@H](C)S(=O)(=O)NC(=O)c2ccc3c(n2)N(C[C@@H]2CC[C@H]21)C[C@@]1(CCCc2c1ccc(Cl)c2F)CO3` [compound 54, (1S,11′R,12′S,13′R,16′R,16a′R,18a′R,E)-6-chloro-5-fluoro-16′-(((S)-hexahydropyrazino[2,1-c][1,4]oxazin-8(1H)-yl)methyl)-16′-methoxy-11′,12′-dimethyl-3,4,12′,13′,16′,16a′,17′,18′,18a′,19′-decahydro-1′H,2H,3′H, 11′H-spiro[naphthalene-1,2′-[5,7]etheno[13,15]methanocyclobuta[i][1,4]oxazepino[3,4-f][1]thia[2,5,7]triazacyclohexadecin]-8′(9′H)-one 10′,10′-dioxide], for which the pIC50 with NCI-H929 cells is 8.31; with OPM-2 cells it was 7.25; in assay [1], 7.82.

`CC(C)[C@@H]1C2=C[C@@H](C2)[C@H](C)[C@@H](C)S(=O)(=O)NC(=O)c2ccc3c(c2)N(C[C@@H]2CC[C@H]21)C[C@@]1(CCCc2c1ccc(Cl)c2F)CO3` [compound 55, (1S,11′R,12′S,13′R,16′S,16a′S,18a′R)-6-chloro-5-fluoro-16′-isopropyl-11′,12′-dimethyl-3,4,12′,13′,16′,16a′,17′,18′,18a′,19′-decahydro-1′H,2H,3′H,11′H-spiro[naphthalene-1,2′-[5,7]etheno[13,15]methanocyclobuta[i][1,4]oxazepino[3,4-f][1]thia[2,7]diazacyclohexadecin]-8′(9′H)-one 10′,10′-dioxide]: the pIC50 with NCI-H929 cells is 6.00; in the assay with OPM-2 cells, 5.99; in assay [1], 7.89.

In the case of `C[C@@H]1[C@@H](C)S(=O)(=O)NC(=O)c2ccc3c(c2)N(C[C@@H]2CC[C@H]2[C@@H](N(C)C)C2=C[C@H]1C2)C[C@@]1(CCCc2c1ccc(Cl)c2F)CO3` [compound 57, (1S,11′R,12′S,13′R,16′R,16a′R,18a′R)-6-chloro-16′-(dimethylamino)-5-fluoro-11′,12′-dimethyl-3,4,12′,13′,16′,16a′,17′,18′,18a′,19′-decahydro-1′H,2H,3′H,11′H-spiro[naphthalene-1,2′-[5,7]etheno[13,15]methanocyclobuta[i][1,4]oxazepino[3,4-f][1]thia[2,7]diazacyclohexadecin]-8′(9′H)-one 10′,10′-dioxide], the pIC50 in the assay with NCI-H929 cells is 7.37; with OPM-2 cells it was 7.44; in assay [1], 7.89.

For `COCCN[C@H]1C2=C[C@@H](C2)[C@H](C)[C@@H](C)S(=O)(=O)NC(=O)c2ccc3c(c2)N(C[C@@H]2CC[C@H]21)C[C@@]1(CCCc2c1ccc(Cl)c2F)CO3` [compound 58, (1S,11′R,12′S,13′R,16′R,16a′R,18a′R)-6-chloro-5-fluoro-16′-((2-methoxyethyl)amino)-11′,12′-dimethyl-3,4,12′,13′,16′,16a′,17′,18′,18a′,19′-decahydro-1′H,2H,3′H, 11′H-spiro[naphthalene-1,2′-[5,7]etheno[13,15]methanocyclobuta[i][1,4]oxazepino[3,4-f][1]thia[2,7]diazacyclohexadecin]-8′(9′H)-one 10′,10′-dioxide], the figures for the pIC50 (in the assay with NCI-H929 cells; in the assay with OPM-2 cells; in assay [1]) were 7.74, 7.24 and 7.72, respectively.
